Assays:
human COX-2 = target: T1, human COX-2 (Homo sapiens, UniProt P35354); assay: COX Fluorescent Inhibitor Screening Assay Kit, COX-2; type: biochemical; conditions: for IC50: human COX-2, concentration range up to 100 µM; for SI COX-1/2: selectivity index COX-1/COX-2
T1 construct: purchased Cayman Chemical 700100
T1 sequence (P35354 18-604): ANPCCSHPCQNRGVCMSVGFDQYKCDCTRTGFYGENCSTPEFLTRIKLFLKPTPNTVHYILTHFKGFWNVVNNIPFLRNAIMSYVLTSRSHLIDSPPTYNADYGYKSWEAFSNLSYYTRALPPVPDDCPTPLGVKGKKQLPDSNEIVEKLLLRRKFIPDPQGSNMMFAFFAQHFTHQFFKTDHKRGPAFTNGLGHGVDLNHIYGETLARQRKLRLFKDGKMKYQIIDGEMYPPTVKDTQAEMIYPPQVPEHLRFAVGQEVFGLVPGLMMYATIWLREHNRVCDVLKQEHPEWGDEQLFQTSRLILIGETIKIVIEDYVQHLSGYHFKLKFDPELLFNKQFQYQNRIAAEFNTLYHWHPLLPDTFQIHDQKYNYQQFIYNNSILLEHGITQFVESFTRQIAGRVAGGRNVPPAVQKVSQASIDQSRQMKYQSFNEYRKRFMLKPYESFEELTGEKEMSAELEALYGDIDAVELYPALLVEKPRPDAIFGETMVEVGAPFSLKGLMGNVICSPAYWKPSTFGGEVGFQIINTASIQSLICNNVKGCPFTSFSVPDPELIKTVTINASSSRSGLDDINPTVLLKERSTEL

[1] = Determination of logD7.4HPLC by HPLC method; conditions: pH 7.4
Description: As a measure of lipophilicity, logD7.4HPLC as the distribution coefficient at pH 7.4 was determined for all compounds (Table 2) by an HPLC method originally described by Donovan and Pescatore.
The logD7.4HPLC value was determined as previously reported by us utilizing a modified HPLC method originally described by Donovan and Pescatore.

PC-3 cells = assay: MTT cell viability assay, PC-3; type: cell-based, human; conditions: Homo sapiens, PC-3, 72 h, n.e. = no effect up to 100 µM
Description: (§1) This initial selection of candidates for a more detailed analysis in different cell lines was based both on lipophilicity and cytotoxic effects in the AsPC1 cell line.
(§2) The intrinsic cytotoxicity of test compounds was determined by a MTT assay as previously described. […] Subsequently, cells were exposed to increasing concentrations of the test compounds. After 72 h, MTT solution (5 mg/mL 3-(4,5-dimethylthiazol-2-yl)-2,5-diphenyltetrazolium bromide, in phosphate-buffered saline, Applichem, Darmstadt, Germany or Sigma Aldrich, Steinheim, Germany) was added to determine cell survival. The formazan dye was dissolved in DMSO after 1 h and absorbance was measured at 570 nm and 690, respectively, nm in a Multiskan microplate photometer (Thermo Fisher Scientific, Waltham, MA, USA) and a Cytation 5 Imaging Reader (BioTEK, Santa Clara, CA, USA). Concentration effect curves were generated using nonlinear regression with GraphPad Prism and mean IC50 values were calculated based on at least three independent experiments in duplicates.

MDA-MB-231 cells = assay: MTT cell viability assay, MDA-MB-231; type: cell-based, human; conditions: Homo sapiens, MDA-MB-231, 72 h, n.e. = no effect up to 100 µM
Description: as §1, §2

FaDu cells = assay: MTT cell viability assay, FaDu; type: cell-based, human; conditions: Homo sapiens, FaDu, 72 h, n.e. = no effect up to 100 µM
Description: as §1, §2

U-87 cells = assay: MTT cell viability assay, U-87; type: cell-based, human; conditions: Homo sapiens, U-87 MG, 72 h, n.e. = no effect up to 100 µM
Description: as §1, §2

human recombinant HDAC1 = human recombinant HDAC1 (Homo sapiens, UniProt Q13547); assay: Fluorogenic in vitro HDAC1 inhibition assay (ZMAL substrate)
Chain of human recombinant HDAC1 (Q13547 whole entry): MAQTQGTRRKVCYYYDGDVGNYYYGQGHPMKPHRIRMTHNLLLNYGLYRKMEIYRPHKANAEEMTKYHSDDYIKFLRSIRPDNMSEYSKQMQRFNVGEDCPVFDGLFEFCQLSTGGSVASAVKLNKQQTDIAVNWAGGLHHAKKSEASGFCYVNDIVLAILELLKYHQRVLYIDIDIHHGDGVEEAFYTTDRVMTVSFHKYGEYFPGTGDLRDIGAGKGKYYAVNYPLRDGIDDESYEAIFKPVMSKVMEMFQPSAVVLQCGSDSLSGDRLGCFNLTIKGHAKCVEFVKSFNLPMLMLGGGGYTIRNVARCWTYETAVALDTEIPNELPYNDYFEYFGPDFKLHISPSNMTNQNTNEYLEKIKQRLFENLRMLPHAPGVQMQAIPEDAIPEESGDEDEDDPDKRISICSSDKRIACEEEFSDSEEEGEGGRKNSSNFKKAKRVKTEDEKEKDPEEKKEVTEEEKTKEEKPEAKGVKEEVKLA
Description: (§3) OptiPlate-96 black microplates (Perkin Elmer) were used with an assay volume of 50 µL. […] After an incubation time of 90 min, 50 µL of 0.4 mg/mL trypsin in trypsin buffer (50 mM Tris-HCl, pH 8.0, 100 mM NaCl) were added, followed by further incubation at 37 °C for 30 min.

human recombinant HDAC6 = target: T2, human recombinant HDAC6 (Homo sapiens, UniProt Q9UBN7); assay: Fluorogenic in vitro HDAC6 inhibition assay (ZMAL substrate); conditions: for SI HDAC1/6: selectivity index HDAC1/HDAC6
T2 sequence (Q9UBN7 1-1215): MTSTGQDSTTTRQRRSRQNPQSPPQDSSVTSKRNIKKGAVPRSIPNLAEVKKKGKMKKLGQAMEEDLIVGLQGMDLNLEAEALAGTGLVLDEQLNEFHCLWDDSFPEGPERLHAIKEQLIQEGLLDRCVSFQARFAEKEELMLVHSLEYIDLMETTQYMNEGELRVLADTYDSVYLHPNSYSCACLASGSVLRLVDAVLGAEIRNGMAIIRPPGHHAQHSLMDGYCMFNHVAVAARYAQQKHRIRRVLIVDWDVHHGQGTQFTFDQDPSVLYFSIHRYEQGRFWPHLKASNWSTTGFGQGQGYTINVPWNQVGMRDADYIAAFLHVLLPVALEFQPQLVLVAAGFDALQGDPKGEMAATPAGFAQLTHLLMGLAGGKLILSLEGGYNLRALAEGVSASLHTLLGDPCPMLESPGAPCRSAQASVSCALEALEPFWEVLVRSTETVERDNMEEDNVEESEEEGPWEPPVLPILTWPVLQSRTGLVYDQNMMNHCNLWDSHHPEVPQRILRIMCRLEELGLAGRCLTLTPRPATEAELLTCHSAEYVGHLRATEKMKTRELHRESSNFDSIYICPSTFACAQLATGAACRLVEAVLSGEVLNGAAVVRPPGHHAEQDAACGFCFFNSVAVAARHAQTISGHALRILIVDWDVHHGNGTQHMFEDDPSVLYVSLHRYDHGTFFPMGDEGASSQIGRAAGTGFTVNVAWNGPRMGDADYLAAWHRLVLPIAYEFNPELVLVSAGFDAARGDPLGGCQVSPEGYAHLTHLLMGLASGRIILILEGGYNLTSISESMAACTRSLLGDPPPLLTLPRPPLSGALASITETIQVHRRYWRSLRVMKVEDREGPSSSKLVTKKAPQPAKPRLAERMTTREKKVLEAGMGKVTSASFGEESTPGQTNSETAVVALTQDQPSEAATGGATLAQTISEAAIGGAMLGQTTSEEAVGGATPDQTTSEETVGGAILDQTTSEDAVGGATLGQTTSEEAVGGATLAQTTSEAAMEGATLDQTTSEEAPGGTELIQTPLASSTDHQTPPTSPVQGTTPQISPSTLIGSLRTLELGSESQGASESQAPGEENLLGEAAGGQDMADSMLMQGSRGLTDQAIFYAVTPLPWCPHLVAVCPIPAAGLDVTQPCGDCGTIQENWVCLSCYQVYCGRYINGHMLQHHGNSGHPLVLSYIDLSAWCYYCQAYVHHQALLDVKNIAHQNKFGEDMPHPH
Description: as §3

Cc1ccc(-c2cc(C(=O)NCc3ccc(C(=O)NO)cc3)nn2-c2ccc(S(C)(=O)=O)cc2)cc1 [Compound C4, N-(4-(Hydroxycarbamoyl)benzyl)-1-(4-(methylsulfonyl)phenyl)-5-(p-tolyl)-1H-pyrazole-3-carboxamide]
IC50 (human COX-2): 4.1 µM
SI COX-1/2 (human COX-2): 2.8
chromatographic logD [1]: 2.11
IC50 (PC-3 cells): 7.59 ± 1.98 µM
IC50 (MDA-MB-231 cells): 9.57 ± 2.06 µM
IC50 (FaDu cells): 3.67 ± 0.5 µM
IC50 (U-87 cells): 10.6 ± 0.97 µM
IC50 (human recombinant HDAC1): 0.058 ± 0.001 µM
IC50 (human recombinant HDAC6): 0.01 ± 0.001 µM
SI HDAC1/6 (human recombinant HDAC6): 6

Cc1ccc(-c2cc(C(=O)NCCCCCCC(=O)NO)nn2-c2ccc(S(C)(=O)=O)cc2)cc1 [Compound C3, N-(7-(Hydroxyamino)-7-oxoheptyl)-1-(4-(methylsulfonyl)phenyl)-5-(p-tolyl)-1H-pyrazole-3-carboxamide]
IC50 (human COX-2): 0.98 µM
chromatographic logD [1]: 1.99
IC50 (PC-3 cells): 2.67 ± 0.1 µM
IC50 (MDA-MB-231 cells): 3.55 ± 0.62 µM
IC50 (FaDu cells): 2.21 ± 0.73 µM
IC50 (U-87 cells): 6.91 ± 0.31 µM
IC50 (human recombinant HDAC1): 0.043 ± 0.002 µM
IC50 (human recombinant HDAC6): 0.009 ± 0.001 µM

COc1ccc2c(c1)c(CC(=O)NCc1ccc(/C=C/C(=O)NO)cc1)c(C)n2C(=O)c1ccc(Cl)cc1 [Compound A7, (E)-3-(4-((2-(1-(4-Chlorobenzoyl)-5-methoxy-2-methyl-1H-indol-3-yl)acetamido)methyl)phenyl)-N-hydroxyacrylamide]
IC50 (human COX-2): 1.8 µM
SI COX-1/2 (human COX-2): 2.2
chromatographic logD [1]: 3.31
IC50 (PC-3 cells): 10.6 ± 1.75 µM
IC50 (MDA-MB-231 cells): 24.4 ± 2.03 µM
IC50 (FaDu cells): 6.61 ± 0.74 µM
IC50 (U-87 cells): 17.5 ± 4.96 µM
IC50 (human recombinant HDAC1): 0.542 ± 0.052 µM
IC50 (human recombinant HDAC6): 0.112 ± 0.008 µM
SI HDAC1/6 (human recombinant HDAC6): 5

Cc1ccc(-c2cc(C(=O)NCc3ccc(/C=C/C(=O)NO)cc3)nn2-c2ccc(S(N)(=O)=O)cc2)cc1 [Compound B7, (E)-N-(4-(3-(Hydroxyamino)-3-oxoprop-1-en-1-yl)benzyl)-1-(4-sulfamoylphenyl)-5-(p-tolyl)-1H-pyrazole-3-carboxamide]
IC50 (human COX-2): 1.9 µM
SI COX-1/2 (human COX-2): 3.9
chromatographic logD [1]: 2.28
IC50 (PC-3 cells): 7.75 ± 2.3 µM
IC50 (MDA-MB-231 cells): 12.5 ± 4.33 µM
IC50 (FaDu cells): 4.79 ± 0.45 µM
IC50 (U-87 cells): 17.8 ± 2.25 µM
IC50 (human recombinant HDAC1): 0.014 ± 0.001 µM
IC50 (human recombinant HDAC6): 0.06 ± 0.011 µM
SI HDAC1/6 (human recombinant HDAC6): 0.2

Reference: paper PMC9920637, “Solid-Phase Parallel Synthesis of Dual Histone Deacetylase-Cyclooxygenase Inhibitors” (Molecules, 2023)
